The Deep4Chem optical property database
Values joined by “and” are separate entries in the source; they are usually repeats but may differ in a detail not shown here. Equal entries are not always repeated.

Assay: solvent given as SMILES
[1] = in O=P(c1ccccc1)(c1ccccc1)c1ccccc1Oc1ccccc1P(=O)(c1ccccc1)c1ccccc1

## COc1ccc2nc(N)sc2c1
In CC#N
  fluorescence lifetime: 4.4 ns
In ClCCl
  fluorescence lifetime: 3.86 ns

## CC(C)c1cc(C(C)C)c(B2c3ccccc3Oc3cc(-n4c5ccccc5c5ccc6c(c7ccccc7n6-c6ccccc6)c54)ccc32)c(C(C)C)c1
In CC(C)c1cc(C(C)C)c(-c2ccc(-n3c4ccccc4n4c5ccccc5nc34)nc2)c(C(C)C)c1
  fluorescence lifetime: 29.6 ns
[1]
  fluorescence lifetime: 27 ns

## CC(=O)O[B-]1(OC(C)=O)OC(/C=C/C=C/c2ccccc2)=CC(/C=C/C=C/c2ccccc2)=[O+]1
In C1CCOC1
  fluorescence lifetime: 2.38 ns
In CC#N
  fluorescence lifetime: 1.81 ns
In CC(C)=O
  fluorescence lifetime: 1.77 ns
In CS(C)=O
  fluorescence lifetime: 2.03 ns
In Cc1ccccc1
  fluorescence lifetime: 2.57 ns
In ClC(Cl)Cl
  fluorescence lifetime: 1.93 ns
In ClCCl
  fluorescence lifetime: 1.84 ns

## CCOC(=O)c1ccccc1-c1c2ccc(=[N+](CC)CC)cc-2oc2c1c(=O)oc1cc(N(CC)CC)ccc12
In CCO
  fluorescence lifetime: 2.12 ns
In ClC(Cl)Cl
  fluorescence lifetime: 4.31 ns
In O
  fluorescence lifetime: 0.27 ns

## CC1(C)c2ccccc2N(c2ccc(C(=CC#N)c3ccc(N4c5ccccc5C(C)(C)c5ccccc54)cc3)cc2)c2ccccc21
In Cc1ccccc1
  fluorescence lifetime: 5.09 ns

## COc1ccc(C2=CC(c3ccc4ccccc4c3)=[O+][B-](C(C)=O)(C(C)=O)O2)cc1
In CC#N
  fluorescence lifetime: 3 ns
In ClC(Cl)(Cl)Cl
  fluorescence lifetime: 1.2 ns

## CC(=O)O[B-]1(OC(C)=O)OC(/C=C/c2ccc(C)cc2)=CC(/C=C/c2ccc(C)cc2)=[O+]1
In C1CCOC1
  fluorescence lifetime: 1.32 ns
In CC#N
  fluorescence lifetime: 1.23 ns
In CC(C)=O
  fluorescence lifetime: 1.19 ns
In CS(C)=O
  fluorescence lifetime: 1.27 ns
In Cc1ccccc1
  fluorescence lifetime: 1.34 ns
In ClC(Cl)Cl
  fluorescence lifetime: 1.25 ns
In ClCCl
  fluorescence lifetime: 1.26 ns

## COc1ccc2cc(C#Cc3ccc([N+](=O)[O-])cc3)ccc2c1
In C1CCOC1
  fluorescence lifetime: 0.57 ns
In ClC(Cl)Cl
  fluorescence lifetime: 0.77 ns
In ClCCl
  fluorescence lifetime: 0.32 ns

## CCCCCCCCN1c2ccc(C#Cc3ccc(C(F)(F)F)cc3)cc2Sc2cc(C=O)ccc21
In C1CCOC1
  fluorescence lifetime: 8.1 ns
In CC#N
  fluorescence lifetime: 6.52 ns
In CCCCCC
  fluorescence lifetime: 6.45 ns
In CO
  fluorescence lifetime: 4.04 ns
In CS(C)=O
  fluorescence lifetime: 7.77 ns
In Cc1ccccc1
  fluorescence lifetime: 7.43 ns
In ClC(Cl)Cl
  fluorescence lifetime: 7.03 ns

## CC1(C)C(/C=C/C2=C(Cl)C(=C/C=C3/N(CCCCS(=O)(=O)[O-])c4ccc5ccccc5c4C3(C)C)/CCC2)=[N+](CCCCS(=O)(=O)[O-])c2ccc3ccccc3c21
In CC(C)=O
  fluorescence lifetime: 0.43 ns
In CCO
  fluorescence lifetime: 0.38 ns
In CO
  fluorescence lifetime: 0.25 ns
In CS(C)=O
  fluorescence lifetime: 0.5 ns
In ClC(Cl)Cl
  fluorescence lifetime: 0.73 ns
In ClCCl
  fluorescence lifetime: 0.59 ns
In O
  fluorescence lifetime: 0.13 ns

## CCCCCCCCC1(CCCCCCCC)c2cc(-c3ccc([Si](C)(C)C)cc3)ccc2-c2ccc(-c3ccc([Si](C)(C)C)cc3)cc21
In CN(C)C=O
  fluorescence lifetime: 1.01 ns

## O=S(=O)([O-])CCC[n+]1c2ccccc2cc2ccccc21
In O
  fluorescence lifetime: 31.2 ns

## C(/C=C/c1cc2c3c(c1)CCCN3CCC2)=C\c1ccncc1
In C1COCCO1
  fluorescence lifetime: 0.25 ns
In CC#N
  fluorescence lifetime: 0.57 ns

## CNC1=C2C=CC=[N+]2[B-](F)(F)n2cccc21
In C1CCCCC1
  fluorescence lifetime: 4.67 ns
In CC(C)=O
  fluorescence lifetime: 0.726 ns
In CCO
  fluorescence lifetime: 0.774 ns
In CCOC(C)=O
  fluorescence lifetime: 2.04 ns
In CO
  fluorescence lifetime: 0.523 ns
In OCC(F)(F)F
  fluorescence lifetime: 1.4 ns

## CCOC(=O)c1ccc2c(c1)[nH]c1c3ccc(C(=O)OCC)cc3sc21
In CCCO
  fluorescence lifetime: 2.6 ns

## Cc1ccc(C(=O)/N=c2\oc3cccc4c5c(-c6ccccc6)oc6cccc(c(c2-c2ccccc2)c34)c65)cc1
In ClC(Cl)Cl
  fluorescence lifetime: 2.1 ns

## N#Cc1cc(N2c3ccccc3Sc3ccccc32)c(N2c3ccccc3Sc3ccccc32)cc1C#N
In c1ccc2c(c1)c1ccccc1n2-c1ccc(-c2ccc(-n3c4ccccc4c4ccccc43)cc2)cc1
  fluorescence lifetime: 48.2 ns

## N#Cc1ccc(C#Cc2ccc(C#Cc3ccc(C#Cc4ccccc4C#N)cc3C#N)cc2C#N)cc1
In C1CCOC1
  fluorescence lifetime: 1.23 ns
In CC#N
  fluorescence lifetime: 1.79 ns
In CN(C)C=O
  fluorescence lifetime: 1.61 ns
In ClC(Cl)Cl
  fluorescence lifetime: 1.14 ns
In c1ccccc1
  fluorescence lifetime: 1.65 ns

## Nc1ccc2c(c1)C(=O)N(C13C[C@H]4C[C@@H](C1)C[C@@H](C3)C4)C2=O
In C1CCCCC1
  fluorescence lifetime: 10.7 ns
In C1CCOC1
  fluorescence lifetime: 18.2 ns
In CC#N
  fluorescence lifetime: 19 ns
In CCOC(C)=O
  fluorescence lifetime: 17 ns
In CO
  fluorescence lifetime: 9.49 ns
In CS(C)=O
  fluorescence lifetime: 22.4 ns
In Cc1ccccc1
  fluorescence lifetime: 17.3 ns
In ClCCl
  fluorescence lifetime: 24.6 ns

## CC(C)[Si]1(C(C)C)c2ccccc2-c2ccc(N(C)C)cc21
In C1CCCCC1
  fluorescence lifetime: 6.5 ns
In ClCCl
  fluorescence lifetime: 4 ns

## Fc1c(-n2c3ccccc3c3ccccc32)c(-c2nnc(-c3ccccc3)o2)c(-n2c3ccccc3c3ccccc32)c(-n2c3ccccc3c3ccccc32)c1-n1c2ccccc2c2ccccc21
In Cc1ccccc1
  fluorescence lifetime: 3.2 ns

## F[B-]1(F)OC(c2ccc(C(F)(F)F)cc2)=Cc2c3ccccc3cc[n+]21
In ClC(Cl)Cl
  fluorescence lifetime: 0.14 ns

## FC(F)(F)c1ccc(-c2nnc(-c3cc(-c4nnc(-c5ccc(C(F)(F)F)cc5)o4)c(-n4c5ccccc5c5ccccc54)cc3-n3c4ccccc4c4ccccc43)o2)cc1
In Cc1ccccc1
  fluorescence lifetime: 5.1 ns
[1]
  fluorescence lifetime: 8.6 ns

## CC1(C)C(/C=C/C2=C(c3ccc(C(=O)O)cc3)C(=C/C=C3/N(CCCCS(=O)(=O)[O-])c4ccc(S(=O)(=O)[O-])cc4C3(C)C)/CCC2)=[N+](CCCCS(=O)(=O)[O-])c2ccc(S(=O)(=O)[O-])cc21
In CC(C)=O
  fluorescence lifetime: 1.02 ns
In CCO
  fluorescence lifetime: 1 ns
In CO
  fluorescence lifetime: 0.81 ns
In CS(C)=O
  fluorescence lifetime: 1.33 ns
In O
  fluorescence lifetime: 0.44 ns

## C=Cc1cc2ccccc2oc1=O
In CC#N
  fluorescence lifetime: 0.39 ns

## c1ccc(N2c3ccc4ccccc4c3-c3c4ccccc4cc[n+]3[B-]2(c2ccccc2)c2ccccc2)cc1
In Cc1ccccc1
  fluorescence lifetime: 6.31 ns

## COc1ccc(N2c3cc(OC)ccc3N=c3cc4c(cc32)=Nc2cc(C(C)(C)C)cc(C(C)(C)C)c2O4)cc1
In CCCCCC
  fluorescence lifetime: 1.14 ns

## c1ccc(-c2ccc(-c3ccc(-c4ccccc4)cc3)cc2)cc1
In C1CCCCC1
  fluorescence lifetime: 0.8 ns
In C1CCOC1
  fluorescence lifetime: 1 ns

## CSc1sc(C(C)=O)c2nn[nH]c(=O)c12
In C1CCOC1
  fluorescence lifetime: 0.42 ns
In CC#N
  fluorescence lifetime: 0.75 ns
In CCO
  fluorescence lifetime: 0.41 ns
In CN(C)C=O
  fluorescence lifetime: 0.25 ns
In CO
  fluorescence lifetime: 0.33 ns
In CS(C)=O
  fluorescence lifetime: 0.15 ns

## c1ccc2c(c1)[nH]c1c3[nH]c4ccccc4c3c3nsnc3c21
In CN(C)C=O
  fluorescence lifetime: 1.3 ns
In Cc1ccccc1
  fluorescence lifetime: 1.02 ns
In ClCCl
  fluorescence lifetime: 1.27 ns

## CC(C)(C)c1ccc(-n2c(-c3ccc(N(c4ccc(-c5ccc(N(c6ccc(-c7nc8c9ccccc9c9ccccc9c8n7-c7ccc(C(C)(C)C)cc7)cc6)c6ccc(-c7nc8c9ccccc9c9ccccc9c8n7-c7ccc(C(C)(C)C)cc7)cc6)cc5)cc4)c4ccc(-c5nc6c7ccccc7c7ccccc7c6n5-c5ccc(C(C)(C)C)cc5)cc4)cc3)nc3c4ccccc4c4ccccc4c32)cc1
In ClCCl
  fluorescence lifetime: 3.8 ns

## COc1ccc(/C=C/c2ccccc2)cc1
In CC#N
  fluorescence lifetime: 0.04 ns

## COc1ccc(N(c2ccccc2)c2ccc(OC)cc2)cc1
In Cc1ccccc1
  fluorescence lifetime: 2.27 ns

## COc1ccc(C2=Nc3cccc4[n+]3[B-](F)(O2)OC(c2ccc(OC)cc2)=N4)cc1
In ClCCl
  fluorescence lifetime: 1.8 ns

## CC1(C)CC(/N=C/c2ccc3ccc4cccc5ccc2c3c45)CC(C)(C)N1
In C1CCCCC1
  fluorescence lifetime: 7.3 ns
In CC#N
  fluorescence lifetime: 2.9 ns
In CO
  fluorescence lifetime: 2.6 ns
In ClC(Cl)Cl
  fluorescence lifetime: 0.3 ns

## Cc1cc(C)c2nc3c(=O)n(C)c(=O)nc-3n(C)c2c1
In CC#N
  fluorescence lifetime: 3.9 ns

## COC(=O)c1[nH]c(-c2ccccc2)c2nnc3ccc(OC)cc3c12
In ClCCl
  fluorescence lifetime: 2.23 ns

## F[B-]1(F)n2cccc2C=C2C=CC=[N+]21
In C1CCCCC1
  fluorescence lifetime: 6.47 ns
In CC(C)=O
  fluorescence lifetime: 7.12 ns
In CCCCCC
  fluorescence lifetime: 6.79 ns
In CCO
  fluorescence lifetime: 7.02 ns
In CCOC(C)=O
  fluorescence lifetime: 6.9 ns
In CO
  fluorescence lifetime: 7.35 ns and 7.33 ns
In ClCCl
  fluorescence lifetime: 6.78 ns
In OCC(F)(F)F
  fluorescence lifetime: 8.23 ns

## C[SiH](C)c1cccc2ccccc12
In C1CCCCC1
  fluorescence lifetime: 61 ns

## CC(=O)c1ccc2ccc3cccc4ccc1c2c34
In C1CCOC1
  fluorescence lifetime: 13.4 ns
In CC#N
  fluorescence lifetime: 9.47 ns
In CCCCCC
  fluorescence lifetime: 6.56 ns
In CCO
  fluorescence lifetime: 0.784 ns
In CN(C)C=O
  fluorescence lifetime: 5.34 ns
In CO
  fluorescence lifetime: 0.538 ns
In Cc1ccccc1
  fluorescence lifetime: 2.8 ns
In ClCCl
  fluorescence lifetime: 4.8 ns

## CCCCN1C(=O)c2cc(Oc3ccc(C(C)(C)C)cc3)c3c4c(Oc5ccc(C(C)(C)C)cc5)cc5c(=O)n6c(c7cc(Oc8ccc(C(C)(C)C)cc8)c(c8c(Oc9ccc(C(C)(C)C)cc9)cc(c2c38)C1=O)c4c57)=Cc1cccc[n+]1[B-]6(F)F
In C1CCOC1
  fluorescence lifetime: 3.79 ns
In Cc1ccccc1
  fluorescence lifetime: 4.1 ns
In ClCCl
  fluorescence lifetime: 4.51 ns

## O=S1(=O)c2ccccc2-c2cc(-c3c4ccccc4cc4ccccc34)ccc21
In C1CCCCC1
  fluorescence lifetime: 3.3 ns
In CC#N
  fluorescence lifetime: 3.8 ns
In ClCCl
  fluorescence lifetime: 3.4 ns

## CCN(CC)c1ccc2cc(C#N)/c(=N\C(=O)c3ccccc3)oc2c1
In ClCCl
  fluorescence lifetime: 3 ns

## CC(C)(C)c1ccc(Oc2cc3c4c(cc(Oc5ccc(C(C)(C)C)cc5)c5c6c(Oc7ccc(C(C)(C)C)cc7)cc7c8c(cc(Oc9ccc(C(C)(C)C)cc9)c(c2c45)c86)C(=O)N(Cc2ccccc2)C7=O)C(=O)N(Cc2ccccc2)C3=O)cc1
In ClC(Cl)Cl
  fluorescence lifetime: 6.3 ns

## Nc1ccccn1
In C1CCCCC1
  fluorescence lifetime: 24.2 ns
In CC#N
  fluorescence lifetime: 5 ns
In CCO
  fluorescence lifetime: 5.1 ns
In CCOCC
  fluorescence lifetime: 10.8 ns
In O
  fluorescence lifetime: 24.4 ns

## CC(C)(C)c1ccc2c(c1)c1cc(C(C)(C)C)ccc1n2-c1ccc(-c2ccc3c(c2)C2(c4cc(-c5ccc(-n6c7ccc(C(C)(C)C)cc7c7cc(C(C)(C)C)ccc76)cc5)ccc4-3)c3ccccc3S(=O)(=O)c3ccccc32)cc1
In ClCCl
  fluorescence lifetime: 1.8 ns

## Nc1cc(N)cc(-c2nc3ccccc3s2)c1
In C1CCCCC1
  fluorescence lifetime: 4.63 ns
In C1COCCO1
  fluorescence lifetime: 4.09 ns
In CC#N
  fluorescence lifetime: 4.14 ns
In CC(C)O
  fluorescence lifetime: 6.4 ns
In CCOC(C)=O
  fluorescence lifetime: 3.84 ns
In CCOCC
  fluorescence lifetime: 3.2 ns
In CO
  fluorescence lifetime: 2.07 ns
In O
  fluorescence lifetime: 1.32 ns

## O=S(=O)(/N=c1\oc2cccc3c4c(-c5ccccc5)oc5cccc(c(c1-c1ccccc1)c23)c54)C(F)(F)F
In CCCCCC
  fluorescence lifetime: 3.8 ns
In CO
  fluorescence lifetime: 7.5 ns
In CS(C)=O
  fluorescence lifetime: 6.6 ns
In ClC(Cl)Cl
  fluorescence lifetime: 5.6 ns
In ClCCl
  fluorescence lifetime: 6.2 ns
In O
  fluorescence lifetime: 2.3 ns

## CC1(C)c2ccccc2N(c2ccc(C(=C(C#N)C#N)c3ccc(N4c5ccccc5C(C)(C)c5ccccc54)cc3)cc2)c2ccccc21
In Cc1ccccc1
  fluorescence lifetime: 3.1 ns

## c1ccc(N2c3ccc4ccccc4c3-c3c4ccccc4cn[n+]3[B-]2(c2ccccc2)c2ccccc2)cc1
In Cc1ccccc1
  fluorescence lifetime: 2.56 ns
